Test results taken from PubChem BioAssay AID248 (DTP/NCI, 2004).
Several values for one entry are separate records, joined by “and”; a condition that tells them apart may be missing. Identical values can stand only once. Toxic doses and inconclusive results are not listed. Cut-off read from the data, not from the text of the source: active = T/C of 150% or more; inactive = T/C below 125%.

Tested on: L1210 leukemia ip in BDF1 mice, survival T/C
Experiment: NCI In Vivo Anticancer Drug Screen. Data for tumor model L1210 Leukemia (intraperitoneal) in B6D2F1 (BDF1) mice
Conditions: endpoint: mean survival time, higher = longer survival
How it was run: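 Ratio derived from survival: compound-dosed mice over vehicle-dosed mice, all bearing a transplantable tumor.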

[1] = dose: 100.0 mg/kg/injection, schedule: Q04DX002 (ip), vehicle: saline with Tween-80
[2] = dose: 200.0 mg/kg/injection, schedule: Q04DX002 (ip), vehicle: saline with Tween-80
[3] = dose: 400.0 mg/kg/injection, schedule: Q04DX002 (ip), vehicle: saline with Tween-80
[4] = dose: 50.0 mg/kg/injection, schedule: Q04DX003 (ip), vehicle: saline
[5] = dose: 100.0 mg/kg/injection, schedule: Q01DX001 (ip), vehicle: saline
[6] = dose: 100.0 mg/kg/injection, schedule: Q04DX003 (ip), vehicle: saline
[7] = dose: 200.0 mg/kg/injection, schedule: Q01DX001 (ip), vehicle: saline
[8] = dose: 200.0 mg/kg/injection, schedule: Q04DX003 (ip), vehicle: saline
[9] = dose: 100.0 mg/kg/injection, schedule: Q01DX009 (ip), vehicle: saline with Tween-80
[10] = dose: 100.0 mg/kg/injection, schedule: Q04DX003 (ip), vehicle: saline with Tween-80
[11] = dose: 200.0 mg/kg/injection, schedule: Q04DX003 (ip), vehicle: saline with Tween-80
[12] = dose: 100.0 mg/kg/injection, schedule: Q01DX009 (ip), vehicle: Klucel (hydroxypropylcellulose) (HPC)
[13] = dose: 200.0 mg/kg/injection, schedule: Q01DX009 (ip), vehicle: Klucel (hydroxypropylcellulose) (HPC)
[14] = dose: 200.0 mg/kg/injection, schedule: Q01DX009 (ip), vehicle: saline with Tween-80
[15] = dose: 400.0 mg/kg/injection, schedule: Q01DX001 (ip), vehicle: saline
[16] = dose: 50.0 mg/kg/injection, schedule: Q01DX009 (ip), vehicle: Klucel (hydroxypropylcellulose) (HPC)
[17] = dose: 100.0 mg/kg/injection, schedule: Q04DX003 (ip), vehicle: Klucel (hydroxypropylcellulose) (HPC)
[18] = dose: 200.0 mg/kg/injection, schedule: Q04DX003 (ip), vehicle: Klucel (hydroxypropylcellulose) (HPC)
[19] = dose: 400.0 mg/kg/injection, schedule: Q04DX003 (ip), vehicle: Klucel (hydroxypropylcellulose) (HPC)

Measured: T/C

C/C=C(\CC)C1(CC)C(=O)NC(=O)NC1=O
inactive: dose: 75.0 mg/kg/injection, schedule: Q01DX001 (ip), vehicle: other 97 % of control | dose: 75.0 mg/kg/injection, schedule: Q01DX001 (ip), vehicle: saline 102 % of control | dose: 150.0 mg/kg/injection, schedule: Q01DX001 (ip), vehicle: other 97 % of control | dose: 150.0 mg/kg/injection, schedule: Q01DX001 (ip), vehicle: saline 103 % of control | dose: 300.0 mg/kg/injection, schedule: Q01DX001 (ip), vehicle: other 91 % of control | dose: 300.0 mg/kg/injection, schedule: Q01DX001 (ip), vehicle: saline 112 % of control

COc1cc(CCC(=O)O)cc(OC)c1OC
inactive: [1] 116 % of control | [2] 89 % of control | [3] 106 % of control

ClC1(Cl)C2CCCCC21N1CCCCC1 (stereo unspecified)
inactive: dose: 50.0 mg/kg/injection, schedule: Q01DX009 (ip), vehicle: saline 102 % of control | [4] 115 % of control | [5] 104 % of control | dose: 100.0 mg/kg/injection, schedule: Q01DX009 (ip), vehicle: saline 87 % of control | [6] 94 % of control | [7] 98 % of control | [8] 101 % of control

CCOC(=O)C(CCSC(C)=O)SC(C)=O (stereo unspecified)
inactive: dose: 25.0 mg/kg/injection, schedule: Q01DX009 (ip), vehicle: saline with Tween-80 94 % of control | dose: 50.0 mg/kg/injection, schedule: Q01DX009 (ip), vehicle: saline with Tween-80 96 % of control | [9] 89 % of control | [10] 95 % of control | [11] 92 % of control

O=C(NNC(=S)NC1CC2C=CC1C2)c1cccnc1 (stereo unspecified)
inactive: [12] 111 % of control | [13] 101 % of control

O=C1N(c2ccccc2)C(c2ccc([N+](=O)[O-])cc2)C1(c1ccccc1)c1ccccc1 (stereo unspecified)
inactive: dose: 100.0 mg/kg/injection, schedule: Q04DX003 (ip), vehicle: gum acacia 96 % of control | dose: 200.0 mg/kg/injection, schedule: Q04DX003 (ip), vehicle: gum acacia 89 % of control | dose: 400.0 mg/kg/injection, schedule: Q04DX003 (ip), vehicle: gum acacia 96 % of control

N=C(N)SCc1cccc([N+](=O)[O-])c1
inactive: dose: 25.0 mg/kg/injection, schedule: Q04DX002 (ip), vehicle: saline with Tween-80 102 % of control | dose: 50.0 mg/kg/injection, schedule: Q04DX002 (ip), vehicle: saline with Tween-80 102 % of control

O=Cc1[nH]c(=S)[nH]c(=O)c1Cc1cccc(Cl)c1
inactive: [9] 100 % of control | [10] 94 % of control | [14] 100 % of control | [11] 94 % of control | dose: 400.0 mg/kg/injection, schedule: Q01DX009 (ip), vehicle: saline with Tween-80 100 % of control | dose: 400.0 mg/kg/injection, schedule: Q04DX003 (ip), vehicle: saline with Tween-80 90 % of control

CCC(Cl)(Cl)[N+](=O)[O-]
inactive: [1] 98 % of control | [2] 98 % of control | [3] 102 % of control

CCCCCCCN(CCCCCCC)C(C)=O
inactive: dose: 100.0 mg/kg/injection, schedule: Q01DX001 (ip), vehicle: other 93 % of control | dose: 200.0 mg/kg/injection, schedule: Q01DX001 (ip), vehicle: other 93 % of control | dose: 400.0 mg/kg/injection, schedule: Q01DX001 (ip), vehicle: other 93 % of control

OCCN(Cc1cccnc1)Cc1ccccn1
inactive: dose: 9.38 mg/kg/injection, schedule: Q01DX001 (ip), vehicle: saline 94 % of control | dose: 18.75 mg/kg/injection, schedule: Q01DX001 (ip), vehicle: saline 100 % of control

O=C(O)CNc1cc(S(=O)(=O)O)cc2cc(S(=O)(=O)O)c(N=Nc3ccc(S(=O)(=O)O)c4ccccc34)c(O)c12
inactive: [5] 98 % of control | [6] 106 % of control | [7] 95 % of control | [8] 90 % of control | [15] 98 % of control | dose: 400.0 mg/kg/injection, schedule: Q04DX003 (ip), vehicle: saline 95 % of control

CC(C)C(C(=O)O)N(C)N=O (stereo unspecified)
inactive: [4] 94 % of control | dose: 100.0 mg/kg/injection, schedule: Q01DX001 (ip), vehicle: acetone 101 % of control | [6] 97 % of control | dose: 200.0 mg/kg/injection, schedule: Q01DX001 (ip), vehicle: acetone 103 % of control | [8] 94 % of control

CNC(Cc1ccccc1)C1CCCCC1 (stereo unspecified)
inactive: dose: 6.0 mg/kg/injection, schedule: Q04DX003 (ip), vehicle: Klucel (hydroxypropylcellulose) (HPC) 93 % of control | dose: 12.0 mg/kg/injection, schedule: Q01DX009 (ip), vehicle: Klucel (hydroxypropylcellulose) (HPC) 98 % of control | dose: 12.0 mg/kg/injection, schedule: Q04DX003 (ip), vehicle: Klucel (hydroxypropylcellulose) (HPC) 98 % of control | dose: 25.0 mg/kg/injection, schedule: Q01DX009 (ip), vehicle: Klucel (hydroxypropylcellulose) (HPC) 98 % of control | dose: 25.0 mg/kg/injection, schedule: Q04DX003 (ip), vehicle: Klucel (hydroxypropylcellulose) (HPC) 95 % of control and 109 % of control | [16] 95 % of control

Cc1ccc(OCCOc2ccc(C(=O)O)cc2)cc1
inactive: [17] 95 % of control | [18] 101 % of control | [19] 101 % of control

CCCCCCOC(=O)C(C)OC(=O)OCCOCCOC(=O)OC(C)C(=O)OCCCCCC (stereo unspecified)
inactive: [5] 100 % of control | [7] 96 % of control | [15] 100 % of control

c1ccc(N2CCN(c3ccccc3)CC2)cc1
inactive: [9] 98 % of control | [14] 86 % of control

NS(=O)(=O)c1ccc(-c2ccc([As](=O)(O)O)cc2)cc1
inactive: dose: 5.0 mg/kg/injection, schedule: Q01DX001 (ip), vehicle: saline 96 % of control | dose: 10.0 mg/kg/injection, schedule: Q01DX001 (ip), vehicle: saline 87 % of control | dose: 20.0 mg/kg/injection, schedule: Q01DX001 (ip), vehicle: saline 98 % of control | dose: 40.0 mg/kg/injection, schedule: Q01DX001 (ip), vehicle: saline 96 % of control | dose: 80.0 mg/kg/injection, schedule: Q01DX001 (ip), vehicle: saline 98 % of control

Cc1ccc(CCCC(CC(=O)O)C(=O)O)cc1 (stereo unspecified)
inactive: dose: 12.5 mg/kg/injection, schedule: Q01DX001 (ip), vehicle: saline with Tween-80 100 % of control | dose: 25.0 mg/kg/injection, schedule: Q01DX001 (ip), vehicle: saline with Tween-80 98 % of control | dose: 50.0 mg/kg/injection, schedule: Q01DX001 (ip), vehicle: saline with Tween-80 88 % of control

COC(=O)c1ccc(C(=O)OC)o1
inactive: dose: 100.0 mg/kg/injection, schedule: Q04DX002 (ip), vehicle: Klucel (hydroxypropylcellulose) (HPC) 113 % of control | dose: 200.0 mg/kg/injection, schedule: Q04DX002 (ip), vehicle: Klucel (hydroxypropylcellulose) (HPC) 98 % of control | dose: 400.0 mg/kg/injection, schedule: Q04DX002 (ip), vehicle: Klucel (hydroxypropylcellulose) (HPC) 106 % of control

C/C(N=Nc1ccc([N+](=O)[O-])cc1)=N\Nc1ccccc1
inactive: [16] 102 % of control | [12] 107 % of control | [13] 112 % of control | dose: 400.0 mg/kg/injection, schedule: Q01DX009 (ip), vehicle: Klucel (hydroxypropylcellulose) (HPC) 97 % of control

CN(C)C(=O)NCc1cccs1
inactive: dose: 100.0 mg/kg/injection, schedule: Q04DX003 (ip), vehicle: carboxymethylcellulose (CMC) 97 % of control | dose: 200.0 mg/kg/injection, schedule: Q04DX003 (ip), vehicle: carboxymethylcellulose (CMC) 93 % of control | dose: 400.0 mg/kg/injection, schedule: Q04DX003 (ip), vehicle: carboxymethylcellulose (CMC) 104 % of control

C/C(=N/N(C)C)c1ccccc1
inactive: dose: 100.0 mg/kg/injection, schedule: Q04DX002 (ip), vehicle: saline 97 % of control | [17] 112 % of control | dose: 200.0 mg/kg/injection, schedule: Q04DX002 (ip), vehicle: saline 108 % of control | [18] 95 % of control | dose: 400.0 mg/kg/injection, schedule: Q04DX002 (ip), vehicle: saline 108 % of control | [19] 90 % of control
